Source: patent US20150125915A1, “Method for Producing Lactic Acid” (Kao Corporation, priority 2012, published 2015)

Columns and labels:
Type in all cases: cell-based
[1] = test system: Rhizopus oryzae NBRC 5418; test: Evaluation of ability to produce lactic acid-2, strain NBRC 5418; settings: 0.5% (w/v) at spore germination, control of the strain without surfactant = 100
Description: (1) Spore suspensions were prepared in the same way as in Production Example 1 using Rhizopus oryzae NBRC 4707, NBRC 4785, NBRC 5384 (=JCM14625), and NBRC 5418 strains obtained from a culture collection NBRC.
(2) Mycelia were prepared from the spores of each strain under the same conditions as in Production Example 2 involving stirring at 100 rpm using 60 mL of a PDB medium non-supplemented or supplemented with 0.5% (w/v) (final concentration) of the surfactant sorbitan monolaurate (Rheodol(R) SP-L10, manufactured by Kao Corp.).
(3) The total amount of the fungus bodies obtained in (2) was inoculated to 100 mL of an inorganic culture medium under the same conditions as in Production Example 3 to grow the mycelia. […]
30 g of the prepared wet fungus bodies of each strain of the genus Rhizopus was inoculated to 100 mL of an inorganic culture medium for lactic acid production evaluation (composition: 12.5% glucose, 0.1% ammonium sulfate, 0.06% potassium dihydrogen phosphate, 0.025% magnesium sulfate heptahydrate, 0.009% zinc sulfate heptahydrate, and 6.25% calcium carbonate; all the concentrations mean % (w/v)) applied to a 500-mL Erlenmeyer flask, and then cultured at 33.5° C. with stirring at 170 rpm. The production rate of lactic acid was determined by the same procedures as in Test Example 2. […]

[2] = test system: Rhizopus oryzae JCM14625 strain (=NBRC 5384); test: Evaluation of ability to produce lactic acid-3 (surfactant concentration in the spore germination medium); settings: no surfactant = 100
Description: (1) 200 mL of a PDB medium non-supplemented or supplemented with 0.01, 0.05, 0.25, 0.50, 1.0, 1.5, or 2.5% (w/v) (final concentration) of sorbitan monolaurate (Rheodol(R) SP-L10, manufactured by Kao Corp.) was applied to a 500-mL baffled Erlenmeyer flask (manufactured by Asahi Glass Co., Ltd.). The Rhizopus oryzae spore suspension prepared in Production Example 1 was inoculated thereto at a dose of 1×10^3 spores/mL of the medium and then cultured at 27° C. for 3 days with stirring at 110 rpm.
(2) The cultures were filtered through a filter support and a nylon net filter of 180 μm mesh size (manufactured by EMD Millipore) sterilized in advance to recover fungus bodies onto the filter. From 2.0 to 3.0 g of the recovered fungus bodies was inoculated to 100 mL of an inorganic culture medium (composition: 10% glucose, 0.1% ammonium sulfate, 0.06% potassium dihydrogen phosphate, 0.025% magnesium sulfate heptahydrate, 0.009% zinc sulfate heptahydrate, and 5.0% calcium carbonate; all the concentrations mean % (w/v)) applied to a 500-mL Erlenmeyer flask, and then cultured at 27° C. for approximately 40 hours with stirring at 220 rpm.
(3) Control conditions in the absence of the surfactant involved culturing spores with stirring by the same procedures as in (1) using a PDB medium non-supplemented with the surfactant and then inoculating from 4 to 8 mL of the PDB seed culture medium to 100 mL of the inorganic culture medium by the same procedures as in (2), followed by culture.
(4) Subsequently, the cultures thus obtained by culture in the inorganic culture medium were filtered through a filter support and a nylon net filter of 180 μm mesh size (manufactured by EMD Millipore) sterilized in advance to recover fungus bodies onto the filter. On this filter, the fungus bodies were further washed with from 50 to 200 mL of saline to obtain fungus bodies.
30 g of the prepared wet fungus bodies of the genus Rhizopus was inoculated to 100 mL of an inorganic culture medium for lactic acid production evaluation (composition: 12.5% glucose, 0.1% ammonium sulfate, 0.06% potassium dihydrogen phosphate, 0.025% magnesium sulfate heptahydrate, 0.009% zinc sulfate heptahydrate, and 6.25% calcium carbonate; all the concentrations mean % (w/v)) and then cultured at 33.5° C. with stirring at 170 rpm. The fungus body-free supernatant of the culture medium was recovered every 1 hour from 30 minutes after the fungus body inoculation. Glucose and lactic acid were quantified by the procedures described later in Reference Example 1. A relative value of the production rate of lactic acid was determined on the basis of the calculation method described in Reference Example 2.
(§1) The concentration of lactic acid (unit: g of lactic acid/L of medium) in the supernatant sample of each culture medium was measured according to Reference Example 1 and divided by a time (unit: hr) required for change in lactic acid concentration to calculate the production rate of lactic acid per unit time (unit: g of lactic acid/L/hr). In addition, a relative value to the production rate of lactic acid under control conditions in each Production Example was determined.

[3] = test system: fungus of the genus Rhizopus; test: Evaluation of ability to produce lactic acid-4 (surfactant added to the lactic acid production medium); settings: for Production rate of lactic acid (relative value): mycelia prepared with 0.5% (w/v), non-supplemented = 100
Description: Specifically, the mycelia of a fungus of the genus Rhizopus were prepared by the method of Production Example 2 using the surfactant and then grown by the method of Production Example 3. 6.0 g of the obtained wet fungus bodies of the genus Rhizopus was inoculated to 40 mL of an inorganic culture medium for lactic acid production evaluation (composition: 8.0% glucose, 0.1% ammonium sulfate, 0.06% potassium dihydrogen phosphate, 0.025% magnesium sulfate heptahydrate, 0.009% zinc sulfate heptahydrate, and 5.0% calcium carbonate; all the concentrations mean % (w/v)) applied to a 200-mL Erlenmeyer flask, and then cultured at 35° C. with stirring at 170 rpm. The supernatant of the culture medium was recovered every 2 hours from 30 minutes after the fungus body inoculation. Glucose and lactic acid were quantified by the procedures described later in Reference Example 1. A relative value of the production rate of lactic acid was determined on the basis of the calculation method described in Reference Example 2.
Mycelia of a fungus of the genus Rhizopus were prepared in a medium containing 0.5% (w/v) (final concentration) of sorbitan monolaurate (Rheodol(R) SP-L10) by the same procedures as in Production Example 2 and then cultured by the same procedures as in Production Example 3. The fungus bodies were cultured by the sane procedures as in Test Example 2 and evaluated for its production rate of lactic acid. In this respect, the inorganic medium for lactic acid production evaluation was non-supplemented or supplemented with 0.1% (w/v), 0.2% (w/v), 0.5% (w/v), or 1% (w/v) (final concentration) of Rheodol(R) SP-L10. The amount of lactic acid was measured at 4 hours and 8.5 hours of the culture to calculate the production rate of lactic acid. The production rate of lactic acid was reduced in the medium supplemented with 0.1% (w/v) or higher of Rheodol(R) SP-L10 during lactic acid production.
as §1

Which results are given for Sorbitan monolaurate?
Production rate of lactic acid (relative value) [1]: 135 relative value; Production rate of lactic acid (relative value) ([2]; 0.01% w/v in germination medium): 119 relative value; Production rate of lactic acid (relative value) ([2]; 0.05% w/v in germination medium): 133 relative value; Production rate of lactic acid (relative value) ([2]; 0.25% w/v in germination medium): 116 relative value; Production rate of lactic acid (relative value) ([2]; 0.50% w/v in germination medium): 138 relative value; Production rate of lactic acid (relative value) ([2]; 1.00% w/v in germination medium): 140 relative value; Production rate of lactic acid (relative value) ([2]; 1.50% w/v in germination medium): 117 relative value; Production rate of lactic acid (relative value) ([2]; 2.50% w/v in germination medium): 98 relative value; Production rate of lactic acid (relative value) ([3]; 0.1% w/v added to lactic acid production medium): 93 relative value; Production rate of lactic acid (relative value) ([3]; 0.2% w/v added to lactic acid production medium): 67 relative value; Production rate of lactic acid (relative value) ([3]; 0.5% w/v added to lactic acid production medium): 4 relative value; Production rate of lactic acid (relative value) ([3]; 1% w/v added to lactic acid production medium): 0 relative value; Production rate of lactic acid (in words) ([3]; medium supplemented with 0.1% (w/v) or higher during lactic acid production): reduced
